Assays:
[1] = system: 4T1 mammary carcinoma cells; assay: Lung metastasis in mice inoculated with 4T1 cells, YHI1 and derivatives vs control compounds (Example 6); type: in vivo, BALB/c mice; conditions: i.p., doses molar equivalent to 30 ng/kg YHI1, day 5 to day 16, 6 days a week
Description: YHI1 and its derivatives YHI2 and YHI4 were tested in comparison to a scrambled sequence (designated ‘YHI3’), IIIM1 and Arg-Pbf. All peptides were synthesized to over 98% purity.
Female BALB/c mice (9-10 weeks old) were iv injected with 4T1 cells (1×10^4 cells in 0.2 ml culture medium; medium was replaced with fresh medium one day prior to the injection). The tested compounds were ip administered on day 5 after tumor cell inoculation and continued daily thereafter 6 days a week until day 16, on which day the mice were sacrificed (in YHI3 group one animal died 14 days after cell injection before end of study). Each mouse received 10 injections during 11 consecutive days. A control group of mice received the same volume of saline (vehicle) injections. Each group contained 8 mice (n=8). Additional 4 mice remained naïve (without tumor cell injection and without any treatment), designated here as ‘pure control’. At the end of the experiments the mice were sacrificed and their lungs were removed, weighed and quantified for number of foci.

D122 cells [2] = assay: Lung metastasis in mice i.v. injected with D122 cells, treatment started 7 days after cell injection; type: in vivo, C57BL/6 mice; conditions: i.p. 0.01 μg/kg from 7 days after cell injection
Description: To assess whether time of treatment affects the metastasis process, YHI1 was administered 7 days after tumor cell injection. Female C57BL/6 mice were i.v. injected with D122 cells (5×10^5 cells per mouse suspended in 100 μl PBS). YHI1 was i.p. administered at a dose of 0.01 μg/kg body weight (volume of 0.1 ml) 7 days after cell injection and thereafter up to 35 days, 3 times a week. Control mice received the vehicle (saline). Lung weight, number of tumors, lung histology (H&E) and survival were determined on day 35 after cell inoculation for each animal Lung weight was compared to a healthy lung removed from a naïve animal.

D122 cells [3] = assay: Lung metastasis in mice i.v. injected with D122 cells, treatment started before cell injection; type: in vivo, C57BL/6 mice; conditions: for reduction in Δ lung weight compared to control: day 35
Description: To examine the effect of YHI1 on cancer cell metastasis, lung metastasis was induced in mice, and the lung weight and the number of large metastases in mice treated with YHI1 or with vehicle only were measured.
Female C57BL/6 mice were i.v. injected with D122 cells (5×10^5 cells per mouse suspended in 100 μl PBS). YHI1 was i.p. administered at doses of 0.1 μg/kg body weight and 0.01 μg/kg body weight 8, 6, 4 and 1 day prior to cell injection and thereafter up to 35 days, 3 times a week. Control mice received the vehicle (saline).
Lung weight was determined on day 35 for each animal. Mean weight of lungs of healthy-non injected mice was subtracted from each value of the experimental and control groups, and the results are expressed as A lung weight. n=11, 10 and 9 mice for control, YHI1 0.1 and 0.01 μg/kg groups, respectively. Results are expressed as mean±SE using the Kruskal-Wallis test and Dunnett's multiple comparison post test for statistical evaluation of the differences in lung weight between the experimental groups and control mice. *p<0.05 for both 0.1 μg/kg and 0.01 μg/kg groups.
The number of large visible metastases in the lungs was next quantified. […] The results are expressed as mean±SE. *p<0.05 Mann Whitney test.
The lungs were then fixed, sectioned and stained with H&E for histopathological evaluation.

[4] = system: D122 cells (3LL Lewis lung carcinoma); assay: Tumor growth in footpads of mice injected with D122 lung tumor cells, i.p. YHI1; type: in vivo, C57BL/6 mice
Description: (§1) YHI1 was synthesized by solid phase synthesis to over 95% purity. To assess the effect of YHI1 on local tumor growth, lung cancer cells were injected into footpads of mice to induce the formation of a topical tumor, and the tumor size was measured in mice treated with several dosages of YHI1 or with vehicle only. Two separate experiments were carried out using this model, one in which YHI1 and vehicle were administered orally and another in which YHI1 and vehicle were administered via intraperitoneal (i.p.) injection.
Female C57BL/6 mice were injected in the footpads with D122 cells (2×10^5 cells per mouse suspended in 50 μl PBS). YHI1 was i.p. administered at the indicated doses 8, 6, 4 or 1 day prior to cell injection and thereafter up to 34 days, 3 times a week. Control mice received the vehicle (saline). Tumor size (diameter) was measured by a caliper. Baseline value (before cell injection) was subtracted from each measurement. Groups: control (n=10), and YHI1—0.1 μg/kg (n=10), 1 μg/kg (n=10), 10 μg/kg (n=11), 100 μg/kg (n=9).
The results are expressed as mean±SE using the Kruskal-Wallis test and Dunnett's multiple comparison post test for statistical evaluation of the differences between the treated groups and control group at each time point.

[5] = system: 4T1 mammary carcinoma cells; assay: Lung metastasis in mice inoculated with 4T1 mammary carcinoma cells (Example 4); type: in vivo, BALB/c mice; set-up: Score (histological score of lung, per specimen): scale not given here
Description: Female BALB/c mice (9-10 weeks) were i.v. injected with mammary 4T1 tumor cells (1×10^4 cells in 0.2 ml culture medium). YHI1 was i.p. administered to the mice at doses of 3, 10 and 30 ng/kg body weight (0.1 ml) on day 5 after tumor cell inoculation and thereafter 6 days a week, until day 21, on which day the mice were sacrificed. Control mice received saline (vehicle) injections. Additional 3 mice remained naïve (“pure control”, no cell injection, no treatment). Each dose group contained 10 mice. At the end of the experiments the mice were sacrificed, the lungs of the mice were removed, weighed and quantified for the number of foci.

[6] = system: D122 cells (3LL Lewis lung carcinoma); assay: Tumor growth in footpads of mice injected with D122 lung tumor cells, oral YHI1; type: in vivo, C57BL/6 mice
Description: as §1
Female C57BL/6 mice were injected in the footpads with D122 cells (2×10^5 cells per mouse suspended in 50 μl PBS), a highly metastatic 3LL Lewis lung carcinoma. YHI1 (dissolved in saline) was orally administered at the indicated doses 8, 6, 4 and 1 day prior to cell injection and thereafter during 35 days, 3 times a week. Control mice received the vehicle (saline). Tumor size (diameter) was measured by a caliper. Baseline value (before cell injection) was subtracted from each measurement. Groups: control (n=10), and YHI1—0.1 mg/kg (n=9), 1 mg/kg (n=10), 5 mg/kg (n=8).
The results are expressed as mean±SE. p<0.05 for 5 mg/kg group versus control, for the period of 23-35 days (Mann-Whitney test).

B16-F10 cells = assay: Tumorigenicity of B16-F10 melanoma cells injected subcutaneously; type: in vivo, C57BL/6 mice; conditions: 17 days after cell injection
Description: To examine the effect of YHI1 on melanoma tumor cells, female C57BL/6 mice (6-7 weeks) were subcutaneously injected in the lateral thoracic-abdominal area with B16-F10 cells (2×10^5 cells in 0.1 ml culture medium). YHI1 was i.p. administered at doses of 30 and 100 ng/kg body weight (0.1 ml) on day 3 after tumor cell inoculation and thereafter until day 20 of tumor cell inoculation, 6 times a week. Control mice received saline (vehicle) injections. Each dose group contained 10 mice. Tumor size was measured along the experiment and was expressed as multiplication of length and width of the tumor.

## H-Lys-Gly-His-Tyr-Ala-Glu-Arg(NO2)-Val-Gly-OH (KGHYAEXVG; HELM PEPTIDE1{K.G.H.Y.A.E.[N=C(NCCC[C@H](N[*:1])C(=O)[*:2])N[N+](=O)[O-]].V.G}$$$$V2.0; SMILES CC(C)[C@H](NC(=O)[C@H](CCCNC(=N)N[N+](=O)[O-])NC(=O)[C@H](CCC(=O)O)NC(=O)[C@H](C)NC(=O)[C@H](Cc1ccc(O)cc1)NC(=O)[C@H](Cc1c[nH]cn1)NC(=O)CNC(=O)[C@@H](N)CCCCN)C(=O)NCC(=O)O) [YHI4, KGHYAER(NO2)VG, derivative of YHI1]
[1]
  lung weight compared to saline control: significant reduction
  number of tumors per lung compared to saline control: reduction was not statistically significant

## H-Lys-Gly-His-Tyr-Ala-Glu-Arg(Pbf)-Val-Gly-OH (KGHYAEXVG; HELM PEPTIDE1{K.G.H.Y.A.E.[Cc1c(C)c(S(=O)(=O)NC(=N)NCCC[C@H](N[*:1])C(=O)[*:2])c(C)c2c1OC(C)(C)C2].V.G}$$$$V2.0; SMILES Cc1c(C)c(S(=O)(=O)NC(=N)NCCC[C@H](NC(=O)[C@H](CCC(=O)O)NC(=O)[C@H](C)NC(=O)[C@H](Cc2ccc(O)cc2)NC(=O)[C@H](Cc2c[nH]cn2)NC(=O)CNC(=O)[C@@H](N)CCCCN)C(=O)N[C@H](C(=O)NCC(=O)O)C(C)C)c(C)c2c1OC(C)(C)C2) [YHI1]
[1]
  lung weight compared to saline control: significant reduction
  number of tumors per lung compared to saline control: significant reduction
D122 cells [2]
  histological lung sections (H&E): only a single focus of viable tumor
  histological score of lung metastasis: significantly reduced
D122 cells [2]; day 35
  lung weight lower than control: 63%
  number of large and medium sized metastases in the lungs: significantly reduced
D122 cells [2]; control 80% survival
  survival: full animal survival
D122 cells [3]; i.p. 0.01 μg/kg
  number of large visible metastases in the lungs: totally eliminated visible metastases
  reduction in Δ lung weight compared to control: 87%
D122 cells [3]; i.p. 0.01 μg/kg, representative section
  lung histopathology (H&E): tumor free
D122 cells [3]; i.p. 0.1 μg/kg
  reduction of number of large metastases compared to control: 58%
  reduction in Δ lung weight compared to control: 78%
[4]; 0.1 μg/kg vs higher doses up to 100 μg/kg
  reduction of tumor size, comparison between doses: more effective in reducing tumor size than higher doses
[4]; 0.1-100 μg/kg, 8, 6, 4, 1 day prior to cell injection and 3 times a week up to 34 days
  rate of tumor growth (tumor size, diameter): reduced the rate of tumor growth
[5]; 30 ng/kg, individual specimens i-X
  Description (blindly evaluated) of lung histology, per specimen: No metastases observed.
[5]; 30 ng/kg, individual specimens i-X, blindly evaluated
  Score (histological score of lung, per specimen): 0
[5]; i.p. 3 ng/kg
  effect on foci number: no effect
[5]; i.p. 3 ng/kg, day 5 to day 21, 6 days a week
  effect on lung weight: no effect
[5]; i.p. 10 ng/kg
  reduction of number of lung foci vs control: 94%
[5]; i.p. 10 ng/kg, day 5 to day 21, 6 days a week
  reduction of lung weight vs control: 65%
[5]; i.p. 30 ng/kg
  reduction of number of lung foci vs control: 100%
[5]; i.p. 30 ng/kg vs control
  histological score of lung metastasis (group): significantly reduced
[5]; i.p. 30 ng/kg, day 5 to day 21, 6 days a week
  reduction of lung weight vs control: 78%
[5]; i.p. 30 ng/kg, representative section
  histological lung section: normal lung tissue with no evidence of metastases
[6]; oral, 5 mg/kg vs 1 mg/kg and 0.1 mg/kg
  reduction of tumor size, comparison between doses: more effective in reducing tumor size than the lower doses
[6]; oral, 0.1, 1, 5 mg/kg, 8, 6, 4, 1 day prior to cell injection and 3 times a week during 35 days
  rate of tumor growth (tumor size, diameter): reduced the rate of tumor growth
B16-F10 cells; i.p. 30 ng/kg compared with 100 ng/kg
  effect on local tumor growth: slightly weaker effect
B16-F10 cells; i.p. 100 ng/kg
  reduction of local tumor growth (tumor size, length x width): 55%

## H-Lys-Gly-His-Tyr-Arg(Pbf)-Ala-Glu-Val-Gly-OH (KGHYXAEVG; HELM PEPTIDE1{K.G.H.Y.[Cc1c(C)c(S(=O)(=O)NC(=N)NCCC[C@H](N[*:1])C(=O)[*:2])c(C)c2c1OC(C)(C)C2].A.E.V.G}$$$$V2.0; SMILES Cc1c(C)c(S(=O)(=O)NC(=N)NCCC[C@H](NC(=O)[C@H](Cc2ccc(O)cc2)NC(=O)[C@H](Cc2c[nH]cn2)NC(=O)CNC(=O)[C@@H](N)CCCCN)C(=O)N[C@@H](C)C(=O)N[C@@H](CCC(=O)O)C(=O)N[C@H](C(=O)NCC(=O)O)C(C)C)c(C)c2c1OC(C)(C)C2) [YHI2, KGHYR(Pbf)AEVG, derivative of YHI1]
[1]
  lung weight compared to saline control: significant reduction
  number of tumors per lung compared to saline control: significant reduction
